Earlier results, collected in US12194111B2, “Alpha emitter compositions and methods” (Nant Holdings IP, LLC, priority 2018, dated 2025).

Test system: relapsed or refractory soft tissue sarcoma
Details: clinical trial; treatment of relapsed or refractory soft tissue sarcoma

In the case of `COc1cccc2c1C(=O)c1c(O)c3c(c(O)c1C2=O)C[C@@](O)(/C(CO)=N/NC(=O)CCCCCN1C(=O)C=CC1=O)C[C@@H]3O[C@H]1C[C@H](N)[C@H](O)[C@H](C)O1` [aldoxorubicin], the progression free disease is listed as “did not show a significant increase in progression free disease”.
